Tests used:
Type in all cases: in vivo, mouse
[1] = test system: ciliary body; assay: Histology (light and electron microscopy) of ciliary body after PDT in C57BL/6 normal mice
Protocol: (§1) Eyes were enucleated at 6 hours (only DBA/2J), at 1 and 7 days after treatment, and at the end of IOP follow up (8 weeks after treatment)(n=2 in each group at each time point) and processed for light and transmission electron microscopic examination. The eyes were bisected behind the limbus, placed in modified Karnovsky's fixative at 4° C. overnight, and then transferred to 0.1 M cacodylate buffer at pH 7.4. Ciliary body specimens were observed by stereomicroscopy at 1 day after PDT for normal mice in the 4.0 mg/kg dose-treated group. Tissues were postfixed in aqueous 2% osmium tetroxide, stained en bloc with Uranyl Acetate, dehydrated in graded ethanols, and embedded in Epon. One-micrometer-thick sections were stained with 0.5% toluidine blue in borate buffer for light microscopy and examined using a photomicroscope (Leica Microsystems, Wetzlar, Germany). Thin sections were stained with aqueous uranyl acetate, and Sato's lead stain, and examined with a transmission electron microscope (CM 10; Phillips, Eindhoven, The Netherlands).

[2] = test system: ciliary body; assay: TUNEL staining after PDT in DBA/2J mice; details: 1.0 mg/kg, 180 degrees; 1 day after PDT
Protocol: Lectin labeling of vascular endothelial cells and TUNEL staining (to examine apoptotic cells) was performed 1 day after PDT in C57BL16 normal mice (n=2). In DBA/2J mice, only TUNEL staining was performed. PDT was performed to cover 180 degrees of the ciliary body at a dose of 4.0 mg/kg (C57BL/6) and 1.0 mg/kg (DBA/2J) verteporfin to compare the degree of staining between irradiated area and non-irradiated area. Non-operated fellow eyes (n=2) were used as controls. After sufficient anesthesia, the animals were perfused with 8 mL phosphate buffered saline (PBS) administered via a catheter in the left ventricle. After PBS perfusion, fluorescein-isothiocyanate (FITC)-coupled Concanavalin A lectin (20 μg/mL in PBS, pH 7.4, 5 mg/kg BW)(Vector Labs, Burlingame, Calif.) was then perfused to stain vascular endothelial cells. Four percent paraformaldehyde in 0.1 PBS (pH 7.4) was perfused following PBS perfusion to remove residual unbound lectin. Enucleated eyes were fixed in 4% paraformaldehyde in 0.1 PBS overnight and were immersed in graded sucrose in 0.1 PBS. The samples were embedded in optimal cutting temperature (OCT) compound (Tissue-Tek, Tokyo, Japan), and sectioned vertically at 10-μm. TUNEL staining was performed according to the manufacturer's protocol (Fluorescein In Situ Apoptosis Detection Kit; CHEMICON International, Temecula, Calif.) to detect retinal cell death induced by PDT. […]

[3] = test system: DBA/2J mice; assay: Ocular complications of ciliary body PDT in DBA/2J mice (preliminary and changed parameters)
[4] = test system: ciliary body; assay: Histology (light and electron microscopy) of ciliary body after PDT in DBA/2J mice; details: 1.0 mg/kg
Protocol: as §1

[5] = test system: C57BL/6 normal mice; assay: IOP measurement (applanation tonometer) after transscleral ciliary body PDT in C57BL/6 normal mice
Protocol: All experiments were performed in accordance with the Association for Research in Vision and Ophthalmology Statement for the Use of Animals in Ophthalmic and Vision Research. C57BL/6 female mice aged 3 months (n=20) were used as the normal model. DBA/2J female mice aged 8 months (n=20) were used as the glaucoma mouse model. One eye of each animal was treated and the other eye served as a control (for both the normal and glaucoma models). Animals were housed in covered cages, were fed with a standard rodent diet ad libitum and were kept under constant 12 hour light-12 hour dark cycles. For general anesthesia, a mixture of ketamine (100 mg/kg) and xylazine (9 mg/kg) was administered intraperitoneally.
Verteporfin photosensitizer (Novartis Ophthalmics, Inc., Duluth, Ga.) was used in these experiments. The mice were systemically anesthetized prior to PDT, and the photosensitizer dye was administered to the animals by tail vain injections using a 30 G needle 5 minutes before laser irradiation. A dose of 2.0 or 4.0 mg/kg was used in C57BL/6 normal mice and of 1.0 mg/kg was used in DBA/2J mice. The laser irradiation to the ciliary body was applied transsclerally using a 600 μm optical fiber at a wavelength of light of 689 nm from a Diode Laser, with an irradiance of 1800 mW/cm^2 and a fluence of 100 J/cm^2 (Lumenis, Santa Clara, Calif.). […] In the C57BL/6 and DBA/2J mice, 16 and 8 spots, respectively, were irradiated to overlap with one another. In the eyes prepared for lectin labeling and terminal deoxynucleotide transferase-mediated nick end labeling (TUNEL) staining (a measure of apoptosis), PDT was performed in C57BL/6 mice to cover 180 degrees of the ciliary body at a 4.0 mg/kg verteporfin dose to compare the degree of staining between irradiated area and non-irradiated area. Retreatment was performed in C57BL/6 normal mice which had been treated with 2.0 mg/kg of verteporfin after the IOP measurement at post-PDT day 7 using the same light parameters.
The IOP was measured using a previously reported applanation tonometer (Ahamed et al. (2003) IOVS 44:ARVO E-Abstract 3336) (n=12 in DBA/2J mice, n=5 in C57BL/6 mice at each dose). The principle of applanation tonometry employs fiber-optic gauges which are designed around a Fabry-Perot interferometer (FPI) (FTI-10; FISO Technologies, Inc., Quebec, Canada). FPI consists of two mirrors facing each other, the space separating the mirrors being called the cavity length. Light reflected in the FPI is wavelength-modulated in exact accordance with the cavity length. FPI gauges convert pressure into cavity length variations which correlate with IOP.
IOP was measured under general anesthesia. Standardization of the plane of anesthesia was obtained as described previously (John et al. (1997) INVEST. OPHTHALMOL. VIS. SCI. 38:249-53). Anesthesia was administered to one mouse at a time. […] Then anesthesia was injected in the next mouse.
As soon as the mice were anesthetized sufficiently, they were placed on a surgical platform. When the pressure sensor applanated a central area of mouse cornea under a dissecting microscope, the IOP (psi) was measured by the device 10 times automatically. The resulting pressures were converted into mmHg units by multiplying the obtained mean value by […]. The LOP was measured every 2 days in the first week, then twice a week until 4 weeks after PDT, and then once a week until 8 weeks after PDT.

With verteporfin the “ciliary body histological findings” value ([1]; 2.0 mg/kg and 4.0 mg/kg, 7 days after PDT) was “ciliary body vessels had recanalized”, the “ciliary body histological findings” value ([1]; 2.0 mg/kg, 1 day after PDT) was “Most ciliary body blood vessels in treated eyes appeared thrombosed and all capillaries were damaged” and the “ciliary body histological findings” value ([1]; 4.0 mg/kg, 1 day after PDT) was “vascular injury, thrombosis with vacuolization of endothelial cells, extravasculum of leukocyte and erythrocytes and severe edema”. For the same substance, the “TUNEL positive (apoptotic) cells” value [2] was “Many TUNEL positive cells were seen in the ciliary process in both the treated and untreated sides of the treated eye”, the ocular complications ([3]; 2 mg/kg, irradiated in 360 degrees of the corneoscleral limbus (preliminary)) was “severe damage such as corneal edema, hyphema, and corneal neovascularization occurred with high frequency” and the ocular complications ([3]; after change of parameters (1.0 mg/kg, 180 degrees)) was “these complications were not seen”. For the same substance, the “ciliary body histological findings” value ([4]; 8 weeks after PDT) was “ciliary body blood vessels were recanalized, and edema had disappeared”, the “ciliary body histological findings” value ([4]; 6 hours after PDT) was “most ciliary body blood vessels in the treated eyes were thrombosed” and the “ciliary body histological findings” value ([4]; 1 day after PDT) was “most ciliary body blood vessels were still thrombosed, and the ciliary epithelium and stroma were severely damaged and edematous”. For the same substance, the “ciliary body histological findings” value ([4]; 7 days after PDT) was “Some of ciliary body blood vessels were still thrombosed”, the “reduction of mean IOP of treated eyes compared to the control eyes” value (“reduction of mean IOP of treated eyes” below) ([5]; 2 mg/kg i.v., 360 degrees, 3 days after treatment, p<0.01) was 41.3% and the “reduction of mean IOP of treated eyes” value ([5]; 2 mg/kg i.v., 689 nm, 100 J/cm^2, 360 degrees, 1 day after treatment, p<0.05) was 35.1%. The “IOP reduction, preliminary experiments” value ([5]; 2.0 mg/kg, 180° of the ciliary body irradiated) was “significant IOP reduction was not obtained”, the “time by which mean IOP returned to the level of the fellow control eyes” value ([5]; 2.0 mg/kg, after first treatment) was no more than 7 days and the “mean IOP of treated eyes” value ([5]; 2 mg/kg, retreatment at day 7, 10 days after first PDT) was 8.7±2.6 mmHg. The “mean IOP of treated eyes” value ([5]; 2 mg/kg, retreatment at day 7, 14 days after first PDT) was 9.5±2.1 mmHg, the “time by which mean IOP returned to the level of the control eyes” value ([5]; 2 mg/kg, with retreatment at day 7, days after PDT) was no more than 17 days and the “mean IOP in treated eyes versus fellow control eyes” value ([5]; 2 mg/kg, with retreatment, 28 and 42 days after PDT) was “statistically lower than the level of fellow control eyes”. For the same substance, the “duration of significant reduction of mean IOP” value ([5]; 4 mg/kg) was 14 days, the “mean IOP of treated eyes” value ([5]; 4 mg/kg i.v., 360 degrees, 1 day after treatment, p<0.05) was 9.2±2.4 mmHg and the “time by which mean IOP returned to the level of the fellow control eyes” value ([5]; 4 mg/kg, after treatment) was no more than 17 days. The “reduction of mean IOP of treated eyes” value ([5]; 4 mg/kg, 1 day after treatment) was 42.1%, the “reduction of mean IOP of treated eyes” value ([5]; 4 mg/kg, 5 days after treatment) was 47.3% and the “mean IOP of treated eyes (minimum)” value ([5]; 4 mg/kg, 5 days after treatment, p<0.01) was 7.2±1.9 mmHg. The “duration of significant reduction of mean IOP” value ([5]; treated normal mice eyes (2.0 and 4.0 mg/kg)) was 7 to 17 days.
